Measured values as given in paper PMC11240139, “Exploring the antitumor potential of novel quinoline derivatives via tubulin polymerization inhibition in breast cancer; design, synthesis and molecular docking” (RSC Advances, 2024).

Columns and labels:
Assay type in all cases: cell-based
MALME-3M (melanoma) = test: NCI-60 SRB cytotoxicity screen; settings: Homo sapiens, single dose 10 μM, read-out: growth inhibition (GI%)
CCRF-CEM (leukemia) = test: NCI-60 SRB cytotoxicity screen; settings: Homo sapiens, single dose 10 μM, read-out: growth inhibition (GI%)
MOLT-4 (leukemia) = test: NCI-60 SRB cytotoxicity screen; settings: Homo sapiens; MOLT-4, single dose 10 μM; read-out: growth inhibition (GI%)
RXF 393 (renal cancer) = test: NCI-60 SRB cytotoxicity screen; settings: Homo sapiens; RXF 393, single dose 10 μM; read-out: growth inhibition (GI%)
SK-MEL-2 (melanoma) = test: NCI-60 SRB cytotoxicity screen; settings: Homo sapiens; SK-MEL-2, single dose 10 μM; read-out: growth inhibition (GI%)
SW-620 (colon cancer) = test: NCI-60 SRB cytotoxicity screen; settings: Homo sapiens; SW-620, single dose 10 μM; read-out: growth inhibition (GI%)
HS 578T (breast cancer) = test: NCI-60 SRB cytotoxicity screen; settings: Homo sapiens, single dose 10 μM, read-out: growth inhibition (GI%)
COLO 205 (colon cancer) = test: NCI-60 SRB cytotoxicity screen; settings: Homo sapiens; COLO 205, single dose 10 μM; read-out: growth inhibition (GI%)
LOX IMVI (melanoma) = test: NCI-60 SRB cytotoxicity screen; settings: Homo sapiens, single dose 10 μM, read-out: growth inhibition (GI%)
[1] = system: NCI/ADR-RES (ovarian cancer); test: NCI-60 SRB cytotoxicity screen; settings: Homo sapiens, single dose 10 μM, read-out: growth inhibition (GI%)
ACHN (renal cancer) = test: NCI-60 SRB cytotoxicity screen; settings: Homo sapiens, single dose 10 μM, read-out: growth inhibition (GI%)
OVCAR-8 (ovarian cancer) = test: NCI-60 SRB cytotoxicity screen; settings: Homo sapiens; OVCAR-8, single dose 10 μM; read-out: growth inhibition (GI%)
K-562 (leukemia) = test: NCI-60 SRB cytotoxicity screen; settings: Homo sapiens; K-652 [sic], single dose 10 μM; read-out: growth inhibition (GI%)
[2] = system: 60 cancer cell lines (NCI); test: NCI-60 single-dose screen, overall verdict over the panel; settings: single dose 10 μM, whole panel
Outline: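 Compounds were tested at a single 10^−5 M dose across the NCI 60 cell line panel, with cells preincubated 24 h before treatment. Viability was measured by TCA fixation and sulforhodamine B staining, absorbance 540 nm. % cytotoxicity = [1 − (sample/negative control absorbance)] × 100.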

SN12C (renal cancer) = test: NCI-60 SRB cytotoxicity screen; settings: Homo sapiens, single dose 10 μM, read-out: growth inhibition (GI%)
OVCAR-3 (ovarian cancer) = test: NCI-60 SRB cytotoxicity screen; settings: Homo sapiens; OVCAR-3, single dose 10 μM; read-out: growth inhibition (GI%)
MDA-MB-435 (melanoma) = test: NCI-60 SRB cytotoxicity screen; settings: Homo sapiens, MDA-MB-435, read-out: growth inhibition (GI%);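 note: growth inhibition in percent at a single 10 µM dose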
HCC-2998 (colon cancer) = test: NCI-60 SRB cytotoxicity screen; settings: Homo sapiens; HCC-2998, single dose 10 μM; read-out: growth inhibition (GI%)
BT-549 (breast cancer) = test: NCI-60 SRB cytotoxicity screen; settings: Homo sapiens; BT-549, single dose 10 μM; read-out: growth inhibition (GI%)
M14 (melanoma) = test: NCI-60 SRB cytotoxicity screen; settings: Homo sapiens; M14, single dose 10 μM; read-out: growth inhibition (GI%)
SNB-19 (CNS cancer) = test: NCI-60 SRB cytotoxicity screen; settings: Homo sapiens; SNB-19, single dose 10 μM; read-out: growth inhibition (GI%)
SF-295 (CNS cancer) = test: NCI-60 SRB cytotoxicity screen; settings: Homo sapiens; SF-295, single dose 10 μM; read-out: growth inhibition (GI%)
[3] = system: MDA-MB-231/ATCC (breast cancer); test: NCI-60 SRB cytotoxicity screen; settings: Homo sapiens, MDA-MB-231, read-out: growth inhibition (GI%);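 note: growth inhibition in percent at a single 10 µM dose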
OVCAR-5 (ovarian cancer) = test: NCI-60 SRB cytotoxicity screen; settings: Homo sapiens; OVCAR-5, single dose 10 μM; read-out: growth inhibition (GI%)
RPMI-8226 (leukemia) = test: NCI-60 SRB cytotoxicity screen; settings: Homo sapiens; RPMI-8226, single dose 10 μM; read-out: growth inhibition (GI%)
[4] = system: NCI-H226 (non-small cell lung cancer); test: NCI-60 SRB cytotoxicity screen; settings: Homo sapiens; NCI-H226, single dose 10 μM; read-out: growth inhibition (GI%)
U251 (CNS cancer) = test: NCI-60 SRB cytotoxicity screen; settings: Homo sapiens, U-251; U251, single dose 10 μM; read-out: growth inhibition (GI%)
786-0 (renal cancer) = test: NCI-60 SRB cytotoxicity screen; settings: Homo sapiens; 786-0, single dose 10 μM; read-out: growth inhibition (GI%)
SK-MEL-5 (melanoma) = test: NCI-60 SRB cytotoxicity screen; settings: Homo sapiens; SK-MEL-5, single dose 10 μM; read-out: growth inhibition (GI%)
[5] = system: HOP-62 (non-small cell lung cancer); test: NCI-60 SRB cytotoxicity screen; settings: Homo sapiens; HOP-62, single dose 10 μM; read-out: growth inhibition (GI%)
[6] = system: NCI-H522 (non-small cell lung cancer); test: NCI-60 SRB cytotoxicity screen; settings: Homo sapiens; NCI-H522, single dose 10 μM; read-out: growth inhibition (GI%)
SF-268 (CNS cancer) = test: NCI-60 SRB cytotoxicity screen; settings: Homo sapiens; SF-268, single dose 10 μM; read-out: growth inhibition (GI%)
[7] = system: A549/ATCC (non-small cell lung cancer); test: NCI-60 SRB cytotoxicity screen; settings: Homo sapiens, single dose 10 μM, read-out: growth inhibition (GI%)
[8] = system: HOP-92 (non-small cell lung cancer); test: NCI-60 SRB cytotoxicity screen; settings: Homo sapiens; HOP-92, single dose 10 μM; read-out: growth inhibition (GI%)
SNB-75 (CNS cancer) = test: NCI-60 SRB cytotoxicity screen; settings: Homo sapiens, SNB-75, SNB-75, single dose 10 μM; read-out: growth inhibition (GI%)

| SMILES | inhibition at 10 µM (MALME-3M (melanoma)) [%] | inhibition at 10 µM (CCRF-CEM (leukemia)) [%] | inhibition at 10 µM (MOLT-4 (leukemia)) [%] | inhibition at 10 µM (RXF 393 (renal cancer)) [%] | inhibition at 10 µM (SK-MEL-2 (melanoma)) [%] | inhibition at 10 µM (SW-620 (colon cancer)) [%] | inhibition at 10 µM (HS 578T (breast cancer)) [%] | inhibition at 10 µM (COLO 205 (colon cancer)) [%] | inhibition at 10 µM (LOX IMVI (melanoma)) [%] | inhibition at 10 µM [1] [%] | inhibition at 10 µM (ACHN (renal cancer)) [%] | inhibition at 10 µM (OVCAR-8 (ovarian cancer)) [%] | inhibition at 10 µM (K-562 (leukemia)) [%] | cytotoxic activity over the cell lines (in words) [2] | inhibition at 10 µM (SN12C (renal cancer)) [%] | inhibition at 10 µM (OVCAR-3 (ovarian cancer)) [%] | inhibition at 10 µM (MDA-MB-435 (melanoma)) [%] | inhibition at 10 µM (HCC-2998 (colon cancer)) [%] | inhibition at 10 µM (BT-549 (breast cancer)) [%] | inhibition at 10 µM (M14 (melanoma)) [%] | further results |
| --- | --- | --- | --- | --- | --- | --- | --- | --- | --- | --- | --- | --- | --- | --- | --- | --- | --- | --- | --- | --- | --- |
| CCc1cccc2cc(C3C=C(c4ccc(OC)cc4)NC(=S)N3)c(Cl)nc12 (stereo not drawn) [Compound 6a, 4-(2-Chloro-8-ethylquinolin-3-yl)-6-(4-methoxyphenyl)-3,4-dihydropyrimidine-2(1H)-thione] | < 10 | < 10 | < 10 | < 10 | < 10 | < 10 | < 10 | < 10 | < 10 | < 10 | < 10 | < 10 | < 10 | limited cytotoxic activity | < 10 | < 10 | < 10 | < 10 | < 10 | 13.2 | inhibition at 10 µM (SNB-19 (CNS cancer)): < 10%; inhibition at 10 µM (SF-295 (CNS cancer)): < 10%; inhibition at 10 µM [3]: < 10%; inhibition at 10 µM (OVCAR-5 (ovarian cancer)): < 10%; inhibition at 10 µM (RPMI-8226 (leukemia)): < 10%; inhibition at 10 µM [4]: < 10%; inhibition at 10 µM (U251 (CNS cancer)): < 10%; inhibition at 10 µM (786-0 (renal cancer)): < 10%; inhibition at 10 µM (SK-MEL-5 (melanoma)): < 10%; inhibition at 10 µM [5]: < 10%; inhibition at 10 µM [6]: < 10%; inhibition at 10 µM (SF-268 (CNS cancer)): < 10%; inhibition at 10 µM [7]: < 10%; inhibition at 10 µM [8]: < 10%; inhibition at 10 µM (SNB-75 (CNS cancer)): 14.9% |
| CCc1cccc2cc(C3C=C(c4ccc(F)cc4)NC(=S)N3)c(Cl)nc12 (stereo not drawn) [Compound 6d, 4-(2-Chloro-8-ethylquinolin-3-yl)-6-(4-fluorophenyl)-3,4-dihydropyrimidine-2(1H)-thione] | < 10 | < 10 | 48.8 | < 10 | < 10 | < 10 | < 10 | < 10 | < 10 | 17 | < 10 | < 10 | 27.6 | limited cytotoxic activity | < 10 | < 10 | < 10 | < 10 | < 10 | 10.8 | inhibition at 10 µM (SNB-19 (CNS cancer)): < 10%; inhibition at 10 µM (SF-295 (CNS cancer)): < 10%; inhibition at 10 µM [3]: < 10%; inhibition at 10 µM (OVCAR-5 (ovarian cancer)): < 10%; inhibition at 10 µM (RPMI-8226 (leukemia)): 19.3%; inhibition at 10 µM [4]: 21.7%; inhibition at 10 µM (U251 (CNS cancer)): < 10%; inhibition at 10 µM (786-0 (renal cancer)): < 10%; inhibition at 10 µM (SK-MEL-5 (melanoma)): < 10%; inhibition at 10 µM [5]: 15.2%; inhibition at 10 µM [6]: 25%; inhibition at 10 µM (SF-268 (CNS cancer)): 14.9%; inhibition at 10 µM [7]: < 10%; inhibition at 10 µM [8]: < 10%; inhibition at 10 µM (SNB-75 (CNS cancer)): < 10% |
| CCc1cccc2cc(C3C=C(c4ccc(Br)cc4)NC(=S)N3)c(Cl)nc12 (stereo not drawn) [Compound 6e, 6-(4-Bromophenyl)-4-(2-chloro-8-ethylquinolin-3-yl)-3,4-dihydropyrimidine-2(1H)-thione] | < 10 | < 10 | 26.2 | < 10 | < 10 | < 10 | < 10 | < 10 | < 10 | < 10 | < 10 | < 10 | < 10 | limited cytotoxic activity | < 10 | < 10 | < 10 | < 10 | < 10 | < 10 | inhibition at 10 µM (SNB-19 (CNS cancer)): < 10%; inhibition at 10 µM (SF-295 (CNS cancer)): < 10%; inhibition at 10 µM [3]: < 10%; inhibition at 10 µM (OVCAR-5 (ovarian cancer)): < 10%; inhibition at 10 µM (RPMI-8226 (leukemia)): 10.7%; inhibition at 10 µM [4]: < 10%; inhibition at 10 µM (U251 (CNS cancer)): < 10%; inhibition at 10 µM (786-0 (renal cancer)): < 10%; inhibition at 10 µM (SK-MEL-5 (melanoma)): < 10%; inhibition at 10 µM [5]: < 10%; inhibition at 10 µM [6]: < 10%; inhibition at 10 µM (SF-268 (CNS cancer)): < 10%; inhibition at 10 µM [7]: < 10%; inhibition at 10 µM [8]: < 10%; inhibition at 10 µM (SNB-75 (CNS cancer)): < 10% |
